# Test: Dissolution of drug in ionic liquid checked under a microscope
# Format: physicochemical
# Conditions: 1.4 mg in 0.5 mL ionic liquid formulation, heated at 65° C. for 10 minutes
# Description: According to the method of Example 1, the preparations of Examples 1, 4 and 5 comprising Lixisenatide as poorly absorbable drug were prepared. Specifically, the ingredients were mixed in the amounts (molar ratios) shown in the above Table 1 to prepare each ionic liquid formulation. Lixisenatide (1.4 mg) was added into the prepared ionic liquid formulation (0.5 mL) and the mixture was heated and dissolved at 65° C. for 10 minutes to prepare each preparation.
# When Lixisenatide was mixed with an ionic liquid and checked the state under a microscope, it was determined that Lixisenatide was dissolved because the crystal of Lixisenatide disappeared by heating.
# According to the method of Example 1, the preparations of Preparation Examples 1 to 3 and 22 to 23 comprising Lixisenatide as poorly absorbable drug were prepared. Specifically, the ingredients were mixed in the amounts (molar ratios) shown in Table 2 below to prepare each ionic liquid formulation, Semaglutide (1.4 mg) was added into the prepared ionic liquid formulation (0.5 mL), and the mixture was heated and dissolved at 65° C. for 10 minutes to prepare each preparation.
# When Semaglutide was mixed with an ionic liquid and checked the state under a microscope, it was determined that Semaglutide was dissolved because the crystal of Semaglutide disappeared by heating.
row,state of the drug mixed with an ionic liquid under a microscope,Substance
1,dissolved,Lixisenatide
2,dissolved,Semaglutide
